# Laboratory results published in US20260297065A1, “AROMATIC SUBSTITUENT-CONTAINING (HETERO) ARYL-IMIDAZOLE COMPOUND, AND PREPARATION METHOD THEREFOR AND USE THEREOF” (OPEN SOURCE THERAPEUTICS, priority 2022, published 2026).
# Molecular target: T1, soluble epoxide hydrolase (sEH) (Homo sapiens, UniProt P34913)
# T1 sequence (P34913 1-555): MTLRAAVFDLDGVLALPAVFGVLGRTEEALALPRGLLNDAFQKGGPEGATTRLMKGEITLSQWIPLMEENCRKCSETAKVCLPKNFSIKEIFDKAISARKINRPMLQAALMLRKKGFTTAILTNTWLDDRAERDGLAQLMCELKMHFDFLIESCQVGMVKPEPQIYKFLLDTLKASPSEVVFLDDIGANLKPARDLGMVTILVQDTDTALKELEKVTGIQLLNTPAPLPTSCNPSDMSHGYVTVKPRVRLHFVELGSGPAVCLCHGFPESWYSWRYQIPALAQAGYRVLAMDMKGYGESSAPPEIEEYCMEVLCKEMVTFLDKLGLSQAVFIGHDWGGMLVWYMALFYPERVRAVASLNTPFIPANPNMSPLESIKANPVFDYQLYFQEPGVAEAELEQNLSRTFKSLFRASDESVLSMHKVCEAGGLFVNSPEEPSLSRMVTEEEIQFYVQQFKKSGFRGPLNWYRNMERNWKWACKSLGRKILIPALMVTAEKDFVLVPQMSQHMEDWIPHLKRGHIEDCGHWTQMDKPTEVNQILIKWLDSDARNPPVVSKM
# Experiment: in vitro biochemical activity test, sEH enzyme inhibition with EET substrate (LC-MS)
# Conditions: 90 min pre-incubation at room temperature, 60 min reaction
# Procedure: This example relates to the relationship between the structure and activity of (hetero)aryl imidazole compounds containing an aromatic substituent. Specifically, the biochemical activity of the (hetero)aryl imidazole compounds containing an aromatic substituent described in Example 1 as sEH enzyme inhibitors was evaluated by in vitro activity test experiments.
# The experimental procedures for evaluating in vitro biochemical activity were described below.
# The substrate used in the evaluation experiment was epoxyeicosatrienoic acid (EET). The solutions used in the evaluation experiments were Bis/Tris HCl 25 mM pH 7.0, Bis/Tris HCl 25 mM pH 7.0 containing 0.1 mg/mL BSA was used as buffer A, and Bis/Tris HCl 25 mM pH 7.0 containing 36.3 mM ZnSO4 was used as buffer B.
# The specific steps of the evaluation experiment were as follows. 79 μL of buffer A was added to each well in a black 96-well plate and then 1 μL solution of the aromatic substituent-containing (hetero)aryl imidazole compound was added. Then, 10 μL sEH (1 μM) buffer A solution was added to the wells. After pre-incubation at room temperature for 90 min, 10 μL EET (10 μM) buffer A solution was added to trigger the reaction. After the mixture was allowed to react […] for 60 min, 15 μL buffer B and 180 μL acetonitrile were added to quench the reaction, followed by high-speed centrifugation and filtration for later use.
# LC-MS was used to detect the concentration of EET in the samples. The final IC50 was calculated based on three independent experiments using Graphpad Prism software.
row,IC50 [nM],SMILES
1,0.62,"Cc1ccc(-c2cc3nc(-c4ccc(C(F)(F)F)cc4)[nH]c3cc2F)cn1 [Compound 15, 5-fluoro-6-(6-methylpyridin-3-yl)-2-(4-(trifluoromethyl)-phenyl)-1H-benzo[d]imidazole]"
2,0.046,"Cc1ncc(-c2cc3nc(-c4ccc(S(=O)(=O)N(C)C)cc4)[nH]c3c(F)c2F)c(Cl)n1 [Compound 28, 4-(6-(4-chloro-2-methylpyr-imid-5-yl)-4,5-difluoro-1H-benzo[d]imidazol-2-yl)-N,N-dimethylbenzenesulfonamide]"
3,0.058,"CC(C)c1nc(N)ncc1-c1cc2nc(-c3ccc(S(=O)(=O)N(C)C)cc3)[nH]c2cc1F [Compound 34, 4-(6-(2-amino-4-isopropyl-pyrimid-5-yl)-5-fluoro-1H-benzo[d]imidazol-2-yl)-N,N-dimethylbenzenesulfonamide]"
4,0.057,"CC(C)n1nc(N)cc1-c1cc2[nH]c(-c3ccc(S(=O)(=O)N(C)C)cc3)nc2cc1F [Compound 60, 4-(6-(1-isopropyl-3-amino-1H-pyrazol-5-yl)-5-fluoro-1H-benzo[d]imidazol-2-yl)-N,N-dimethylbenzenesulfonamide]"
5,0.1,"Cc1ccncc1-c1cc2[nH]c(-c3ccc(S(=O)(=O)N(C)C)cc3)nc2cc1F [Compound 55, 4-(6-(4-methylpyridin-3-yl)-5-fluoro-1H-benzo[d]imidazol-2-yl)-N,N-dimethylbenzene-sulfonamide]"
6,0.1,"Cc1nc(N)ncc1-c1cc2nc(-c3ccc(S(=O)(=O)N(C)C)cc3)[nH]c2cc1F [Compound 22, 4-(6-(2-amino-4-methylpyr-imid-5-yl)-5-fluoro-1H-benzo [d]imidazol-2-yl)-N,N-dimeth-yl-benzenesulfonamide]"
7,0.14,"Fc1cc2[nH]c(-c3ccc(C(F)(F)F)cc3)nc2cc1-c1cnc(N2CCOCC2)nc1 [Compound 16, 4-(5-(5-fluoro-2-(4-(trifluoro-methyl)phenyl)-1H-benzo[d]imidazol-6-yl)pyrimidine-2-yl)morpholine]"
8,0.17,Fc1c(-c2cnc(N3CCOCC3)nc2C(F)F)cc2[nH]c(-c3ccc(C(F)(F)F)cc3)nc2c1F [Compound 74]
9,0.074,Cc1ncc(-c2cc3nc(-c4ccc(C(F)(F)F)cc4)[nH]c3c(F)c2F)c(C)n1 [Compound 5]
10,0.94,"Cc1ncc(-c2ccc3[nH]c(-c4ccc(C(F)(F)F)cc4)nc3c2F)cn1 [Compound 14, 7-fluoro-6-(2-methylpyrimid-5-yl)-2-(4-(trifluoromethyl)-phenyl)-1H-benzo[d]imidazole]"
11,0.047,"Nc1cc(C(F)F)c(-c2cc3[nH]c(-c4ccc(C(F)(F)F)cc4)nc3c(F)c2F)cn1 [Compound 77, 2-(4-(trifluoromethyl)phenyl)-6-(4-(difluoromethyl)-6-amino-pyridin-3-yl)-4,5-difluoro-1H-benzo[d]imidazole]"
12,0.016,"CN(C)S(=O)(=O)c1ccc(-c2nc3cc(F)c(-c4cnc(N)nc4C(F)F)cc3[nH]2)cc1 [Compound 51, 4-(6-(4-(difluoromethyl)-2-aminopyrimid-5-yl)-5-fluoro-1H-benzo[d]imidazol-2-yl)-N,N-dimethylbenzenesulfon-amide]"
13,0.14,"Cc1nc(N)ncc1-c1cc2[nH]c(-c3ccc(C(F)(F)F)cc3)nc2cc1F [Compound 42, 5-(5-fluoro-2-(4-(trifluoro-methyl)phenyl)-1H-benzo[d]imidazol-6-yl)-4-methylpyrim-idine-2-amine]"
14,0.051,"CC(C)n1nccc1-c1cc2nc(-c3ccc(S(=O)(=O)N(C)C)cc3)[nH]c2cc1F [Compound 21, 4-(5-fluoro-6-(1-isopropyl-1H-pyrazol-5-yl)-1H-benzo[d]imidazol-2-yl)-N,N-dimethyl-benzenesulfonamide]"
15,0.98,"CC(C)n1nccc1-c1cc2nc(-c3ccc(S(C)(=O)=O)cc3)[nH]c2cc1F [Compound 19, 5-fluoro-6-(1-isopropyl-1H-pyrazol-5-yl)-2-(4-(methyl-sulfonyl)phenyl)-1H-benzo[d] imidazole]"
16,0.11,"CNc1nc(C)ncc1-c1cc2nc(-c3ccc(C(F)(F)F)cc3)[nH]c2cc1F [Compound 7, 5-(5-fluoro-2-(4-(trifluoro-methyl)phenyl)-1H-benzo[d]imidazol-6-yl)-N,2-dimethyl-pyrimidine-4-amine]"
17,0.11,"Cc1nc(N(C)C)ncc1-c1cc2nc(-c3ccc(C(F)(F)F)cc3)[nH]c2cc1F [Compound 9, 5-(5-fluoro-2-(4-(trifluoro-methyl)phenyl)-1H-benzo[d]imidazol-6-yl)-N,N,4-trimeth-ylpyrimidine-2-amine]"
18,0.036,"CC(C)c1ncncc1-c1cc2[nH]c(-c3ccc(S(=O)(=O)N(C)C)cc3)nc2cc1F [Compound 47, 4-(5-fluoro-6-(4-isopropyl-pyrimid-5-yl)-1H-benzo[d]imidazol-2-yl)-N,N-dimethyl-benzenesulfonamide]"
19,0.54,"Cc1cc(F)ncc1-c1cc2nc(-c3ccc(S(N)(=O)=O)cc3)[nH]c2cc1F [Compound 36, 4-(5-fluoro-6-(6-fluoro-4-methylpyridin-3-yl)-1H-benzo [d]imidazol-2-l)benzenesulfon-amide]"
20,0.096,"Cc1nc(N)ncc1-c1cc2[nH]c(-c3ccc(C(F)F)cc3)nc2c(F)c1F [Compound 44, 5-(2-(4-(difluoromethyl)phen-yl)-4,5-difluoro-1H-benzo[d]imidazol-6-yl)-4-methylpyr-imidine-2-amine]"
21,0.036,"CN(C)S(=O)(=O)c1ccc(-c2nc3c(F)c(F)c(-c4cnc(N)cc4Cl)cc3[nH]2)cc1 [Compound 57, 4-(6-(6-amino-4-chloropyri-din-3-yl)-4,5-difluoro-1H-benzo[d]imidazol-2-yl)-N,N-dimethylbenzenesulfonamide]"
22,0.045,"CN(C)S(=O)(=O)c1ccc(-c2nc3cc(-c4ccnn4C(C)(C)F)c(F)cc3[nH]2)cc1 [Compound 38, 4-(5-fluoro-6-(1-(2-fluoropro-pan-2-yl)-1H-pyrazol-5-yl)-1H-benzo[d]imidazol-2-yl)-N,N-dimethylbenzenesulfon-amide]"
23,0.089,"Nc1ncc(-c2cc3[nH]c(-c4ccc(C(F)(F)F)cc4)nc3c(F)c2F)c(C(F)F)n1 [Compound 68, 5-(2-(4-(trifluoromethyl)phen-yl)-4,5-difluoro-1H-benzo[d]-imidazol-6-yl)-4-(difluoro-methyl)pyrimidine-2-amine]"
24,0.033,"Cc1cc(N)ncc1-c1cc2[nH]c(-c3ccc(S(=O)(=O)N(C)C)cc3)nc2c(F)c1F [Compound 45, 4-(6-(6-amino-4-methylpyr-idin-3-yl)-4,5-difluoro-1H-benzo[d]imidazol-2-yl)-N,N-dimethylbenzenesulfonamide]"
25,0.042,"Nc1ncc(-c2cc3[nH]c(-c4ccc(C(F)F)cc4)nc3c(F)c2F)c(C(F)F)n1 [Compound 46, 4-(difluoromethyl)-5-(2-(4-(difluoromethyl)phenyl)-4,5-difluoro-1H-benzo[d]imid-azol-6-yl)pyrimidine-2-amine]"
26,0.38,"CNS(=O)(=O)c1ccc(-c2nc3cc(-c4cnc(F)cc4C)c(F)cc3[nH]2)cc1 [Compound 37, 4-(5-fluoro-6-(6-fluoro-4-methylpyridin-3-yl)-1H-benzo [d]imidazol-2-yl)-N-methyl-benzenesulfonamide]"
27,0.085,"Cc1nc(N)ncc1-c1cc2nc(-c3ccc(S(=O)(=O)N(C)C)cc3)[nH]c2c(F)c1Cl [Compound 31, 4-(6-(2-amino-4-methylpyr-imid-5-yl)-5-chloro-4-fluoro-1H-benzo[d]imidazol-2-yl)-N,N-dimethylbenzenesulfon-amide]"
28,0.081,"Cc1nn(C(F)F)cc1-c1cc2[nH]c(-c3ccc(C(F)(F)F)cc3)nc2c(F)c1F [Compound 76, 2-(4-(trifluoromethyl)phenyl)-6-(3-methyl-1-(difluorometh-yl)-1H-pyrazol-4-yl)-4,5-difluoro-1H-benzo[d]imidazole]"
29,0.081,"Cc1nc(N2CCOCC2)ncc1-c1cc2nc(-c3ccc(S(=O)(=O)N(C)C)cc3)[nH]c2cc1F [Compound 26, 4-(5-fluoro-6-(4-methyl-2-morpholinopyrimid-5-yl)-1H-benzo[d]imidazol-2-yl)-N,N-dimethylbenzenesulfonamide]"
30,0.083,"Cc1ncc(-c2cc3nc(-c4ccc(S(=O)(=O)N(C)C)cc4)[nH]c3cc2F)c(C)n1 [Compound 29, 4-(6-(2,4-dimethylpyrimid-5-yl)-5-fluoro-1H-benzo[d]imidazol-2-yl)-N,N-dimethyl-benzenesulfonamide]"
